Measured values reported in patent publication US7157107B2, “Method for producing eggs with low cholesterol level” (priority 2004, dated 2007).
Where two headings read alike, the source gives them in different places.

What was measured:
Hy-line laying hens = test: Monacolin K residue remained in eggs (HPLC); assay type: in vivo, hen; details: hens fed basal diet containing 0.056% monacolin K (highest red mold rice content) for 42 days, FIG. 3
Procedure: The method for determining whether there is any monacolin K residue remained comprised the following steps. 20 mL acetonitrile-water (9:1, v/v) is added into 10 grams of egg samples (including yolk samples and albumen samples which are separated from eggs laid by hens fed with red mold rice of the highest content for 42 days), vibrated for 60 min through ultrasonic vibration, stirred and mixed for 15 min. Then, after the solid is separated off through a Whatman No. 1 filter paper, equal volume of acetonitrile is added into a 4 mL egg sample, filtered via a filter membrane of 0.45 μm pore size, and analyzed thgrough HPLC. The operating conditions for performing HPLC analysis were described as above.

hens = details: cited from earlier work

In the case of `CC[C@H](C)C(=O)O[C@H]1C[C@@H](C)C=C2C=C[C@H](C)[C@H](CC[C@@H]3C[C@@H](O)CC(=O)O3)[C@H]21` [lovastatin], the “Monacolin K residue in eggs (yolk and egg white)” value (Hy-line laying hens) is listed as “no monacolin K residue”, the “Lowering of egg cholesterol concentration” value (shortened to “Lowering”) (hens; 0.0005% lovastatin, hens of 30 weeks old, feed for 12 weeks (Mori et al.)) is listed as 7.5% and the “Lowering” value (hens; 0.0015% lovastatin, hens of 30 weeks old, feed for 12 weeks (Mori et al.)) is listed as 12.7%. For the same compound, the “Decrease in egg cholesterol concentration” value (hens; 0.0035% lovastatin, hens of 69 weeks old, feed for 5 weeks (Luhman et al.)) was “no significant decrease”, the “Lowering” value (hens; 0.03% lovastatin, hens of 18 weeks old, feed for 5 weeks (Elkin and Yan)) was 4% and the “Lowering” value (hens; 0.06% lovastatin, hens of 18 weeks old, feed for 5 weeks (Elkin and Yan)) was 7%. For the same compound, the “Decrease of egg cholesterol” value (hens; 0.2407% lovastatin in feed for 9 days (Elkin and Rogler)) was 13%.
